Test results taken from patent publication US11040981B2, “Pyrrolotriazine compounds and methods of inhibiting TAM kinases” (Syros Pharmaceuticals, Inc., priority 2017, dated 2021).

Columns and labels:
TYRO3 = biological target: T1, TYRO3 (Homo sapiens, UniProt Q06418); assay: TR-FRET kinase activity assay, TYRO3; type: biochemical; conditions: ATP at Km, 60 minutes
T1 sequence (Q06418 41-890): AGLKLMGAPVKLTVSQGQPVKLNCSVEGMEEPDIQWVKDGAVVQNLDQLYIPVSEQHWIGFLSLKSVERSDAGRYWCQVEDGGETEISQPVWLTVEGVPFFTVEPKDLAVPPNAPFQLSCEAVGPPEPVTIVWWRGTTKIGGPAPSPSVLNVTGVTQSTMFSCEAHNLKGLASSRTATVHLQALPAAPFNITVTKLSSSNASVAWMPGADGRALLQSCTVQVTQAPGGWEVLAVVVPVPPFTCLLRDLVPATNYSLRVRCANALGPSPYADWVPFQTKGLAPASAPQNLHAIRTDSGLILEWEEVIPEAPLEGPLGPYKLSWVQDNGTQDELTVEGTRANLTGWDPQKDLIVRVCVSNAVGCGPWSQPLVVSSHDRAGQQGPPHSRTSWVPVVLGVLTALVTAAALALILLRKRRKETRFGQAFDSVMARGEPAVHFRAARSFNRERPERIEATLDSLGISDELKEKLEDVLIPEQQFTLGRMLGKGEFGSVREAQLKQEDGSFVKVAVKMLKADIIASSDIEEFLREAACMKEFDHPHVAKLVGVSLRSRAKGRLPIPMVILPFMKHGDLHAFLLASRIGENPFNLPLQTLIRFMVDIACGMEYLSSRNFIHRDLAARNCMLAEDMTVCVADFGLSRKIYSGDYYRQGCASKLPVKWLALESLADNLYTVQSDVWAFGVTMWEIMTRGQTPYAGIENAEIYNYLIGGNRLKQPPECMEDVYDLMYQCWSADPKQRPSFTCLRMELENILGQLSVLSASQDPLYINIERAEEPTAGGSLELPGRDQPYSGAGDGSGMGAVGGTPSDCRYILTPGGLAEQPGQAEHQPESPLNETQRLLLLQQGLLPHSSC
How it was run: (§1)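 Recombinant human kinases, fluorescent peptide substrate, ATP at Km; 1 h RT, pH 7.5. EDTA-quenched, Eu antibody added, TR-FRET read; IC50 determined.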

FLT3 = biological target: T2, FLT3 (Homo sapiens, UniProt P36888); assay: TR-FRET kinase activity assay, FLT3; type: biochemical; conditions: ATP at Km, 60 minutes
T2 sequence (P36888 27-993): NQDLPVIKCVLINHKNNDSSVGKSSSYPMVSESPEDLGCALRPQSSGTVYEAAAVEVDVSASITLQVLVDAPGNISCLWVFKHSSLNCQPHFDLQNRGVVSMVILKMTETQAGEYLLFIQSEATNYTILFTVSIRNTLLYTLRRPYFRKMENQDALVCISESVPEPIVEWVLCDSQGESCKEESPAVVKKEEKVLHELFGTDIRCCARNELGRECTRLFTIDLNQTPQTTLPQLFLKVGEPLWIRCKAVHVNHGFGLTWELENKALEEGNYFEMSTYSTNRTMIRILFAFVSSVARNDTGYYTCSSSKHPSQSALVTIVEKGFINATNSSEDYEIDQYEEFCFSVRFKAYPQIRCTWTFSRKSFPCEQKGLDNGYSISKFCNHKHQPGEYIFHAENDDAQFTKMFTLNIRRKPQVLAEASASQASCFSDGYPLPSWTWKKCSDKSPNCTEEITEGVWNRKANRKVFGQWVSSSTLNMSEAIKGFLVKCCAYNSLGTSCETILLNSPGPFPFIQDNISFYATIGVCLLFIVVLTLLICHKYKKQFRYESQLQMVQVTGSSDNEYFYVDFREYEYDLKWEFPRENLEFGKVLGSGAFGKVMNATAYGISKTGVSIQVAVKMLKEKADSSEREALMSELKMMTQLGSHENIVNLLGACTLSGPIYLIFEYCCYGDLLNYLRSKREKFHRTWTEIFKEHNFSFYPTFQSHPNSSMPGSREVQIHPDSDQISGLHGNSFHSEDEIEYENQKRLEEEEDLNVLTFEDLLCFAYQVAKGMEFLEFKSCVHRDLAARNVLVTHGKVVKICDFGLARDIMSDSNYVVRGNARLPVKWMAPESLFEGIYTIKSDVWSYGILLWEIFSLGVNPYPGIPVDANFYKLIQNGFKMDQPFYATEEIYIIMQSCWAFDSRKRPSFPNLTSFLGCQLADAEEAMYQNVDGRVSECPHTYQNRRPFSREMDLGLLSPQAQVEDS
How it was run: as §1

Row | IC50 (TYRO3) | IC50 (FLT3) | Compound
1 | ≤ 100 nM | 100 to 1000 nM | COC[C@H](C)Nc1ncc2c(-c3cnn(C(C)(C)C(=O)N4CCOCC4)c3)cc([C@H]3CC[C@H](O)CC3)n2n1 [Compound 282]
2 | ≤ 100 nM | 100 to 1000 nM | COC[C@H](C)Nc1ncc2c(-c3cnn(Cc4cnccn4)c3)cc([C@H]3CC[C@H](O)CC3)n2n1 [Compound 305]
3 | ≤ 100 nM | 100 to 1000 nM | COC[C@H](C)Nc1ncc2c(-c3cnn(Cc4nc(C)no4)c3)cc([C@H]3CC[C@H](O)CC3)n2n1 [Compound 292]
4 | ≤ 100 nM | 1000 to 10000 nM | CNC(=O)c1cncc(-c2cc([C@H]3CC[C@H](O)CC3)n3nc(N[C@@H](C)CC(F)(F)F)ncc23)c1 [Compound 304]
5 | 100 to 1000 nM | 1000 to 10000 nM | CCCCC[C@H](C)Nc1ncc2c(N3CCC(N(C)C)CC3)cc(C3CCC(O)CC3)n2n1.Cl (stereo partly drawn) [Compound 115, 4-[5-[4-(dimethylamino)-1-piperidyl]-2-[[(1S)-1-methylhexyl]amino]pyrrolo[2,1-f][1,2,4]triazin-7-yl]cyclohexanol hydrochloride]
6 | ≤ 100 nM | ≤ 100 nM | COC[C@H](C)Nc1ncc2c(-c3cnn(Cc4ccc(S(C)(=O)=O)cc4)c3)cc([C@H]3CC[C@H](O)CC3)n2n1 [Compound 314]
7 | ≤ 100 nM | 100 to 1000 nM | COC[C@H](C)Nc1ncc2c(-c3cnn(Cc4cn[nH]c4)c3)cc([C@H]3CC[C@H](O)CC3)n2n1 [Compound 332]
8 | ≤ 100 nM | 1000 to 10000 nM | COC[C@H](C)Nc1ncc2c(-c3cnn(C(C)(C)C(=O)N4C[C@@H](C)O[C@@H](C)C4)c3)cc([C@H]3CC[C@H](O)CC3)n2n1 [Compound 320]
9 | ≤ 100 nM | 100 to 1000 nM | CNS(=O)(=O)c1cncc(-c2cc([C@H]3CC[C@H](O)CC3)n3nc(N[C@@H](C)COC)ncc23)c1 [Compound 272]
10 | ≤ 100 nM | 100 to 1000 nM | COC[C@H](C)Nc1ncc2c(-c3cnn(Cc4cncc(C)n4)c3)cc([C@H]3CC[C@H](O)CC3)n2n1 [Compound 329]
11 | ≤ 100 nM | 100 to 1000 nM | CC(CC(F)(F)F)Nc1ncc2c(-c3cncc(S(C)(=O)=O)c3)cc(C3CCC(O)CC3)n2n1 (centres unmarked) [Compound 273]
12 | ≤ 100 nM | ≤ 100 nM | CC[C@H](C)Nc1ncc2c(-c3ccc(CN4CCN(C)CC4)cc3)cc([C@H]3CC[C@H](O)CC3)n2n1 [Compound 118]
13 | ≤ 100 nM | 1000 to 10000 nM | CNC(=O)C(C)(C)n1cc(-c2cc([C@H]3CC[C@H](O)CC3)n3nc(N[C@@H](C)COC)ncc23)cn1 [Compound 295]
14 | ≤ 100 nM | ≤ 100 nM | COC[C@H](C)Nc1ncc2c(-c3cnn(Cc4ccnnc4)c3)cc([C@H]3CC[C@H](O)CC3)n2n1 [Compound 281]
15 | ≤ 100 nM | ≤ 100 nM | CNc1c(N[C@H]2CC[C@H](c3cc(-c4ccc(CN5CCOCC5)cc4)c4cnc(N[C@@H](C)COC)nn43)CC2)c(=O)c1=O [Compound 316, 3-(((trans)-4-(2-(((S)-1-methoxypropan-2-yl)amino)-5-(4-(morpholinomethyl)phenyl)pyrrolo[2,1-f][1,2,4]triazin-7-yl)cyclohexyl)amino)-4-(methylamino)cyclobut-3-ene-1,2-dione]
16 | ≤ 100 nM | 100 to 1000 nM | COC[C@H](C)Nc1ncc2c(-c3ccc(S(C)(=O)=O)nc3)cc([C@H]3CC[C@H](O)CC3)n2n1 [Compound 279]
17 | ≤ 100 nM | 100 to 1000 nM | C[C@@H](CC(F)(F)F)Nc1ncc2c(-c3cncc(C(=O)N(C)C)c3)cc([C@H]3CC[C@H](O)CC3)n2n1 [Compound 310]
18 | ≤ 100 nM | 100 to 1000 nM | COCC(C)Nc1ncc2c(-c3cnn(Cc4ccc(=O)n(C)c4)c3)cc(C3CCC(O)CC3)n2n1 (centres unmarked) [Compound 322]
19 | ≤ 100 nM | 100 to 1000 nM | Cc1cc(-c2cc([C@H]3CC[C@H](O)CC3)n3nc(N[C@@H](C)COC(F)F)ncc23)ccn1 [Compound 313]

Row | IC50 (TYRO3) | IC50 (FLT3) | Compound
20 | ≤ 100 nM | 100 to 1000 nM | COC[C@H](C)Nc1ncc2c(-c3cnn(Cc4noc(C)n4)c3)cc([C@H]3CC[C@H](O)CC3)n2n1 [Compound 285]
21 | ≤ 100 nM | ≤ 100 nM | COC[C@H](C)Nc1ncc2c(-c3cnn(C4CC(S(C)(=O)=O)C4)c3)cc([C@H]3CC[C@H](O)CC3)n2n1 (some centres unmarked) [Compound 287]
22 | ≤ 100 nM | 100 to 1000 nM | CNS(=O)(=O)c1ccc(-c2cc([C@H]3CC[C@H](O)CC3)n3nc(N[C@@H](C)COC)ncc23)cn1 [Compound 336]
23 | ≤ 100 nM | 100 to 1000 nM | COC[C@H](C)Nc1ncc2c(-c3cnn(Cc4cc(C)nn4C)c3)cc([C@H]3CC[C@H](O)CC3)n2n1 [Compound 333]
24 | ≤ 100 nM | ≤ 100 nM | COC[C@H](C)Nc1ncc2c(-c3ccc(CN4CCOCC4)cc3)cc([C@H]3CC[C@H](NS(C)(=O)=O)CC3)n2n1 [Compound 301]
25 | ≤ 100 nM | 100 to 1000 nM | COC[C@H](C)Nc1ncc2c(-c3ccnc(N4CCCC4)c3)cc([C@H]3CC[C@H](O)CC3)n2n1 [Compound 339]
26 | ≤ 100 nM | 1000 to 10000 nM | COC[C@H](C)Nc1ncc2c(-c3cc(C)nc(C)c3)cc([C@H]3CC[C@H](O)CC3)n2n1 [Compound 308]
27 | ≤ 100 nM | 100 to 1000 nM | COC[C@H](C)Nc1ncc2c(-c3ccnc(OC4CCCN(C)C4)c3)cc([C@H]3CC[C@H](O)CC3)n2n1 (some centres unmarked) [Compound 341]
28 | ≤ 100 nM | ≤ 100 nM | C[C@@H](CC(F)(F)F)Nc1ncc2c(-c3cnn([C@H]4CCOC4)c3)cc([C@H]3CC[C@H](O)CC3)n2n1 [Compound 290]
29 | ≤ 100 nM | 100 to 1000 nM | COC[C@H](C)Nc1ncc2c(-c3cnn(C4CN(CCC(F)(F)F)C4)c3)cc([C@H]3CC[C@H](O)CC3)n2n1 [Compound 291]
30 | ≤ 100 nM | 100 to 1000 nM | COC[C@H](C)Nc1ncc2c(-c3ccnc(N4CCN(S(C)(=O)=O)CC4)c3)cc([C@H]3CC[C@H](O)CC3)n2n1 [Compound 338]
31 | ≤ 100 nM | 1000 to 10000 nM | COC[C@H](C)Nc1ncc2c(-c3ccnc(OC(C)C)c3)cc([C@H]3CC[C@H](O)CC3)n2n1 [Compound 343]
32 | ≤ 100 nM | 1000 to 10000 nM | CC(CC(F)(F)F)Nc1ncc2c(-c3cnc(C(=O)O)nc3)cc(C3CCC(O)CC3)n2n1 (centres unmarked) [Compound 299]
33 | ≤ 100 nM | ≤ 100 nM | CNC(=O)c1ccc(-c2cc([C@H]3CC[C@H](O)CC3)n3nc(N[C@@H](C)COC)ncc23)cn1 [Compound 317]
34 | ≤ 100 nM | 100 to 1000 nM | COC[C@H](C)Nc1ncc2c(-c3cnn(C4CN(C(=O)C5COC5)C4)c3)cc([C@H]3CC[C@H](O)CC3)n2n1 [Compound 293]
35 | ≤ 100 nM | 100 to 1000 nM | COC[C@H](C)Nc1ncc2c(-c3ccnc(N4CCN(C(C)=O)CC4)c3)cc([C@H]3CC[C@H](O)CC3)n2n1 [Compound 344]
36 | ≤ 100 nM | 1000 to 10000 nM | COC[C@H](C)Nc1ncc2c(-c3cnn(C(C)(C)C(=O)N4C[C@H]5CC[C@@H](C4)O5)c3)cc([C@H]3CC[C@H](O)CC3)n2n1 [Compound 327]
37 | ≤ 100 nM | 1000 to 10000 nM | COC[C@H](C)Nc1ncc2c(-c3cnn(C(C)(C)C(=O)N4CCC5(COC5)C4)c3)cc([C@H]3CC[C@H](O)CC3)n2n1 [Compound 318]
